Data from patent publication US20240327427A1, “NEW COMPOUNDS FOR THE TREATMENT OF ALZHEIMER'S DISEASE” (Icahn School of Medicine at Mount Sinai, priority 2020, published 2024).
Entries after “also recorded” stand apart in the source; their conditions may differ.

Columns and labels:
Format in all cases: cell-based, human
ATP6V1A [1] = test: ATP6V1A mRNA expression in drug-treated NPCs (LINCS profiles); conditions: drug-treated vs DMSO-treated, LINCS data
From the text: Compounds were screened for drugs that can rescue the in vitro and in vivo phenotypes arising from ATP6V1A deficits. Using their drug repositioning tool, Ensemble of Multiple Drug Repositioning Approaches (EMUDRA) (Zhou et al., 2018b), the inventors matched the disease signature from the BM36-PHG region and the signatures of 3,629 drugs tested in the NPCs in the Library of Integrated Network-based Cellular Signatures (LINCS) project (FIG. 6A). The inventors further prioritized candidate drugs by their potential to increase the mRNA expression of ATP6V1A in the NPCs.
To identify existing drugs that can restore the molecular expression change in the LOAD brains, the inventors performed a drug repositioning analysis using EMUDRA, which provides a novel computational algorithm to match disease signatures and drug-induced signatures. The inventors downloaded drug-treated gene expression profiles (level 3 data of quantile-normalized and log 2 transformed expression levels from human iPSC-derived neural progenitor cells (NPCs) from the Library of Integrated Network-Based Cellular Signatures (LINCS) program. After removing probes sets mapping to multiple genes or without known gene annotation, the remaining data were adjusted for batch effects using linear regression. The mean expression level of multiple probe sets that match to the same gene was used as the expression level for that gene. For each drug, the applied drug signature was the transcriptome-wide expression difference between drug-treated and DMSO-treated gene expression profiles. The inventors matched each of the drug signatures to the LOAD signature using EMUDRA to find drugs that could reverse the LOAD signature. […] In total, 3,629 drug signatures were analyzed and ranked. The inventors further prioritized the top-ranked drugs that can increase ATP6V1A mRNA expression in the NPCs.

ATP6V1A [2] = test: ATP6V1A mRNA (qRT-PCR) and protein (western blot) levels in hiPSC-derived NGN2 neurons (iNs); conditions: for transcriptional and translational levels of ATP6V1A: D21 iNs, concentrations between 1 and 30 μM
Protocol: To verify this discovery, the inventors measured the transcriptional and translational levels of ATP6V1A in D21 iNs treated with the 3 HDAC inhibitors at a series of concentrations between 1 and 30 μM.
CRISPR inhibition (CRISPRi) was used to repress endogenous ATP6V1A in hiPSC-derived NGN2 neurons. […] Next, the inventors investigated whether LQ081-166 rescued the phenotypes of ATP6V1A deficit and reduced neuronal activity.
Quantitative reverse transcription PCR (qRT-PCR) was performed as previously described. Specifically, cell cultures were harvested with Trizol and total RNA extraction was carried out following the manufacturer's instructions. Quantitative transcript analysis was performed using a QuantStudio 7 Flex Real-Time PCR System with the Power SYBR Green RNA-to-Ct Real-Time qPCR Kit (all Thermo Fisher Scientific). Total RNA template (25 ng per reaction) was added to the PCR mix, including primers listed below. qPCR conditions were as follows; 48° C. for 30 min, 95° C. for 10 min followed by 40 cycles (95° C. for 15 s, 60° C. for 60 s). All qPCR data is collected from at least 3 independent biological replicates of one experiment. Data analyses were performed using GraphPad PRISM 6 software.
Cells were rinsed with ice-cold phosphate-buffered saline (PBS), pelleted, and lyzed in RIPA Lysis and Extraction Buffer (Thermo Fisher Scientific, #89900) containing Halt™ Protease and Phosphatase Inhibitor Cocktail (Thermo Fisher Scientific, #78440). Alternatively, MSBB BM36 brain samples were homogenized with similar methods. Samples were sonicated for 1 minute then centrifuged at 13,000× rpm for 10 min. The supernatant was collected, and total protein concentration was determined using Quick Start™ Bradford Protein Assay (Bio-Rad, 5000201) following the manufacturer's instructions.
Images were captured and quantified using the Odyssey® Imaging Systems (LI-COR. Inc.).
(§1) A stock solution of LQ081-166 (molecular weight: 452.63) at 3 mM is prepared in dimethyl sulfoxide (DMSO). Once prepared, aliquot the stock solution into 100 μL amounts and store at −80° C. Avoid repeated freeze-thaw cycles. The stock is diluted 1000× into neuronal medium to obtain 3 μM for assays. After 24-hour treatment, RNA was extracted from cells for quantitative PCR. In the MEA assay, LQ081-166 was added on neuronal differentiation day 14. Replace with medium containing drug or vehicle every 2-3 days until the final recording day.

[3] = system: hiPSC-derived NGN2 neurons; test: Multi-electrode array (MEA) neuronal activity
Protocol: To evaluate electrical activity of NGN2-neurons by MEA, density-matched isogenic NGN2-neuronal populations, co-cultured with pHAs, were prepared as described above. Specifically, at day 3, pHAs were split as 17,000 cells/well in a Matrigel-coated 48W MEA plate (Axion Biosystems, M768-tMEA-48W) and maintained as above. At day 7, NGN2-neurons were detached, spun down and seeded on the pHA culture. Outer space of each well in the plate was filled up with autoclaved/deionized water to minimize the evaporation of marginal wells (“edge effect”) during long-term culture. Half volume of neuronal medium (supplemented with 2% FBS) was replaced with fresh medium including 200 nM Ara-C from day 9 until the end of MEA recording. Electrical activity of neurons was recorded daily during day 14-24. On the recording day, the plate was loaded into the Axion Maestro MEA reader (Axion Biosystems). Recording was performed via AxiS 2.4 for 10 mins. Quantitative analysis of the recording was exported as a Microsoft excel sheet. Data were analyzed using GraphPad PRISM 6 software.
as §1

ATP6V1A [4] = test: ATP6V1A gene expression-based compound screening (qRT-PCR) in hiPSC-derived NPCs; conditions: for ATP6V1A mRNA level / gene expression: hiPSC-derived NPCs, qRT-PCR vs DMSO
From the text: Thirty nine new compounds were synthesized by chemical synthesis and evaluated for their capability to elevate the mRNA level of ATP6V1A and the neuronal activities in hiPSC-derived NPCs. […] These disclosures indicate that the chemical structure to the right in LQ081-166 has a structure-activity relationship necessary for ATP6V1A activation.
To identify useful drugs for targeting this novel therapeutic target, the inventors synthesized 39 new compounds by chemical synthesis and evaluated their capability of elevating the mRNA level of ATP6V1A and neuronal activity in hiPSC-derived NPCs.
To improve the potency and efficacy of the drugs, an additional 18 derivatives based on LQ081-166 were synthesized (FIG. 7B). […] The inventors determined that the thioester and benzyl group in LQ081-166 has a structure-activity relationship necessary for ATP6V1A activation.
FIG. 7. ATP6V1A gene expression-based compounds screening. (A) qRT-PCR analysis (N=3-12) to determine the relative changes in ATP6V1A gene expression after exposure to 40 chemical compounds. ****, p<0.0001 (one-way ANOVA). DMSO serves as vehicle control. (B) Molecular modification of LQ081-166 and chemical structure of LQ108-32. (C) qRT-PCR analysis of relative ATP6V1A gene expression after exposure to LQ081-166 derivatives. Grey scale bars in the graph are associated with the categories of molecular modification. Note that LQ108-51/52/53 is a small pool of three LQ081-166 derivatives. (D) Effects of LQ081-166 at 0.3, 1, 3, and 10 μM on ATP6V1A mRNA level after 24-h exposure. *, p<0.05; **, p<0.01 (one-way ANOVA).
Quantitative reverse transcription PCR (qRT-PCR) was performed as previously described. […] Quantitative transcript analysis was performed using a QuantStudio 7 Flex Real-Time PCR System with the Power SYBR Green RNA-to-Ct Real-Time qPCR Kit (all Thermo Fisher Scientific). […]
A stock solution of LQ081-166 (molecular weight: 452.63) at 3 mM is prepared in dimethyl sulfoxide (DMSO). […] After 24-hour treatment, RNA was extracted from cells for quantitative PCR. […]

For `CC[C@H]1CN2CCc3cc(OC)c(OC)cc3C2C[C@@H]1CC1NCCc2cc(OC)c(OC)cc21` (stereo partly shown) [BRD-A25687296], the “ATP6V1A (log2FC)” value (ATP6V1A [1]) was 2.37 log2FC.
With `C[C@@H]1O[C@@H](O[C@@H]2C=C3CCC4C(CC[C@]5(C)[C@@H](c6ccc(=O)oc6)CC[C@]45O)[C@@]3(C)CC2)[C@H](O)[C@H](O)[C@H]1O` (stereo partly shown) [BRD-A34806832] the “ATP6V1A (log2FC)” value (ATP6V1A [1]) was 1.49 log2FC.
With `CC1CC(C)C(=O)C(C(O)CC2CC(=O)NC(=O)C2)C1` (stereo not shown) [BRD-A62184259] the “ATP6V1A (log2FC)” value (ATP6V1A [1]) was 1.46 log2FC.
With `C[C@@H]1C[C@@H]([C@H](O)CC2CC(=O)NC(=O)C2)C(=O)[C@@H](C)C1` [BRD-K36055864] the “ATP6V1A (log2FC)” value (ATP6V1A [1]) was 2.00 log2FC.
In the case of `C[C@@H]1CN([C@@H](C)CO)C(=O)c2cccc(NC(=O)c3ccc(-c4nccs4)cc3)c2O[C@@H]1CN(C)Cc1ccc(C(=O)Nc2ccccc2N)cc1` [BRD-K56196992], the “ATP6V1A (log2FC)” value (ATP6V1A [1]) was 1.47 log2FC.
With `Nc1ccccc1NC(=O)c1ccc(CNC(=O)OCc2cccnc2)cc1` [BRD-K77908580] the “ATP6V1A (log2FC)” value (ATP6V1A [1]) was 1.54 log2FC.
`CC[C@H]1CN2CCc3cc(OC)c(OC)cc3[C@@H]2C[C@@H]1C[C@H]1NCCc2cc(O)c(OC)cc21` [BRD-K80348542] was tested, and the “ATP6V1A (log2FC)” value (ATP6V1A [1]) was 1.09 log2FC.
In the case of `C[C@]12CC[C@H]3[C@@H](CC[C@]4(O)C[C@@H](O)CC[C@]34C=O)[C@@]1(O)CC[C@@H]2C1=CC(=O)OC1` [BRD-K84595254], the “ATP6V1A (log2FC)” value (ATP6V1A [1]) was 2.98 log2FC.
In the case of `O=C(CCCCCCSC(=O)CCc1ccccc1)Nc1nc(-c2ccccc2)cs1` [LQ081-166, S-(7-oxo-7-((4-phenylthiazol-2-yl)amino)heptyl) 3-phenylpropanethioate], the “ATP6V1A mRNA level” value (ATP6V1A [2]; ATP6V1A KD hiPSC-derived NGN2 neurons) was “restores ATP6V1A mRNA level”, the “ATP6V1A mRNA level” value (ATP6V1A [2]; NGN2 neurons, 3 μM, 24 hours) was “significantly increased” and the “restoration of neuronal activity (MEA)” value ([3]; ATP6V1A KD neurons, regardless of presence/absence of Aβ exposure, 3 μM) was “partially restoring neuronal activity”. The “neuronal activity (MEA)” value ([3]; NGN2 neurons, 3 μM LQ081-166) was “potent activator of neuronal activity”, the “dose dependence of effect on ATP6V1A mRNA level” value (ATP6V1A [4]; 0.3, 1, 3 and 10 μM, 24-h exposure) was “dose-dependent effect” and the “ATP6V1A mRNA level / gene expression” value (ATP6V1A [4]) was “most significantly increased”.
With `O=C(CCCCCCC(=O)SCCc1ccccc1)Nc1nc(-c2ccccc2)cs1` [LQ108-32, S-phenethyl 8-oxo-8-((4-phenylthiazol-2-yl)amino)octanethioate] the “ATP6V1A mRNA level / gene expression” value (ATP6V1A [4]; listed as LQ081-32) was “did not affect; also recorded: inability to affect”.
With `Nc1ccccc1NC(=O)c1ccc(CNC(=O)OCc2cccnc2)cc1` [MS-275] the “transcriptional and translational levels of ATP6V1A” value (ATP6V1A [2]) was “ineffective”.
With `O=C(CCCCCCC(=O)Nc1ccccc1)NO` [SAHA] the “ATP6V1A (log2FC)” value (ATP6V1A [1]) was 0.77 log2FC and the “transcriptional and translational levels of ATP6V1A” value (ATP6V1A [2]) was “ineffective”.
With `CCC(=O)CCCCC[C@@H]1NC(=O)[C@H]2CCCCN2C(=O)[C@H]([C@@H](C)CC)NC(=O)[C@H](Cc2cn(OC)c3ccccc23)NC1=O` [apicidin] the “ATP6V1A (log2FC)” value (ATP6V1A [1]) was 0.99 log2FC.
`CN(C)c1ccc(C(=O)NCCCCCCC(=O)NO)cc1` [m-344] was tested, and the “ATP6V1A (log2FC)” value (ATP6V1A [1]) was 0.84 log2FC.
In the case of `O=C(CCCCCN1C(=O)c2cccc3cccc(c23)C1=O)NO` [scriptaid], the “ATP6V1A (log2FC)” value (ATP6V1A [1]) was 0.78 log2FC.
For `CC(/C=C/C(=O)NO)=C\[C@@H](C)C(=O)c1ccc(N(C)C)cc1` [trichostatin a], the “ATP6V1A (log2FC)” value (ATP6V1A [1]) was 0.61 log2FC.
